ChEMBL document CHEMBL4184272, “Violacin A, a new chromanone produced by Streptomyces violaceoruber and its anti-inflammatory activity” (Bioorg Med Chem Lett, 2018)
Calls of active or inactive are those of the source. The calls are words filed in the database; no cut-off is given here.

Columns and labels:
RAW264.7 [1] = experiment: Anti-inflammatory activity in mouse RAW264.7 cells assessed as inhibition of LPS-stimulated NO production by Griess assay; format: functional, cell-based
[2] = target: Transcription factor p65 (Mus musculus) (UniProt Q04207); experiment: Inhibition of NF-kB p65 signaling pathway in mouse RAW264.7 cells assessed as reduction in LPS-stimulated IkBalpha phosphorylation at 3.3 to 30 uM preincubated for 2 hrs followed by LPS stimulation measured after 30 mins by Western blot method; format: cell-based
Transcription factor p65 (Mus musculus), sequence (Q04207 whole entry): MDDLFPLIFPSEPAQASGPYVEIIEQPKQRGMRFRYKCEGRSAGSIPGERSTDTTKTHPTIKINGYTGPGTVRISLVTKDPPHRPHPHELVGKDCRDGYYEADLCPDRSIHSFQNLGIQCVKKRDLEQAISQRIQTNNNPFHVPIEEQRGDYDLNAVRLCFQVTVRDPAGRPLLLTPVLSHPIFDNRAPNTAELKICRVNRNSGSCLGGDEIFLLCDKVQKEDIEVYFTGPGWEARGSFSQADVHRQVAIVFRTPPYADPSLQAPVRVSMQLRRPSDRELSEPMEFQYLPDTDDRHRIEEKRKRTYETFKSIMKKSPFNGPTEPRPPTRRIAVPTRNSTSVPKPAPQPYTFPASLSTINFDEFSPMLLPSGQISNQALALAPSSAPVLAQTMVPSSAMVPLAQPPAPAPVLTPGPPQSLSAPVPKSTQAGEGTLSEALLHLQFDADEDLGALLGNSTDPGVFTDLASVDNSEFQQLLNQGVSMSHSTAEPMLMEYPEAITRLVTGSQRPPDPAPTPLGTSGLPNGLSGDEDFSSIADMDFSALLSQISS

[3] = target: Transcription factor p65 (Mus musculus) (UniProt Q04207); experiment: Inhibition of NF-kB p65 phosphorylation in mouse RAW264.7 cells at 3.3 to 30 uM preincubated for 2 hrs followed by LPS stimulation measured after 30 mins by Western blot method; format: cell-based
[4] = target: Transcription factor p65 (Mus musculus) (UniProt Q04207); experiment: Inhibition of LPS-stimulated NF-kB p65 signaling pathway in mouse RAW264.7 cells assessed as IkBalpha accumulation at 3.3 to 30 uM preincubated for 2 hrs followed by LPS stimulation measured after 30 mins by Western blot method; format: cell-based
RAW264.7 [5] = experiment: Inhibition of NF-kB signaling in mouse RAW264.7 cells assessed as reduction in LPS-stimulated IL-1beta mRNA level preincubated for 2 hrs followed by LPS stimulation measured after 4 hrs by qRT-PCR assay; format: cell-based
RAW264.7 [6] = experiment: Inhibition of NF-kB signaling in mouse RAW264.7 cells assessed as reduction in LPS-stimulated iNOS mRNA level preincubated for 2 hrs followed by LPS stimulation measured after 24 hrs by qRT-PCR method; format: cell-based
RAW264.7 [7] = experiment: Inhibition of NF-kB signaling in mouse RAW264.7 cells assessed as reduction in LPS-stimulated IL-6 mRNA level preincubated for 2 hrs followed by LPS stimulation measured after 4 hrs by qRT-PCR assay; format: cell-based
RAW264.7 [8] = experiment: Inhibition of NF-kB signaling in mouse RAW264.7 cells assessed as reduction in LPS-stimulated iNOS protein level at 3.3 to 30 uM preincubated for 2 hrs followed by LPS stimulation measured after 4 hrs by Western blot assay; format: cell-based
[9] = target: Transcription factor p65 (Mus musculus) (UniProt Q04207); experiment: Inhibition of LPS-stimulated NF-kB p65 signaling pathway in mouse RAW264.7 cells assessed as reduction in p65 nuclear translocation at 3.3 to 30 uM preincubated for 2 hrs followed by LPS stimulation measured after 30 mins by Western blot method; format: cell-based
RAW264.7 [10] = experiment: Inhibition of NF-kB signaling in mouse RAW264.7 cells assessed as reduction in LPS-stimulated TNFalpha mRNA level preincubated for 2 hrs followed by LPS stimulation measured after 4 hrs by qRT-PCR assay; format: cell-based
RAW264.7 [11] = experiment: Anti-inflammatory activity in mouse RAW264.7 cells assessed as inhibition of LPS-stimulated NO production preincubated for 2 hrs followed by LPS stimulation measured after 18 hrs by Griess assay; format: functional, cell-based
RAW264.7 [12] = experiment: Cytotoxicity against LPS-stimulated mouse RAW264.7 cells assessed as reduction in cell viability at 3.3 to 90 uM after 24 hrs by MTT assay; format: cell-based; conditions: raw264.7, 24 h

IC50 (RAW264.7 [1])	inhibition [2]	inhibition [3]	inhibition [4]	inhibition [9]	SMILES	inhibition (RAW264.7 [5])	inhibition (RAW264.7 [6])	inhibition (RAW264.7 [7])	inhibition (RAW264.7 [8])	inhibition (RAW264.7 [10])	inhibition (RAW264.7 [11])	Activity (RAW264.7 [12])
51.2 µM	–	–	–	–	CCCc1c(C(C)=O)c(O)cc2c1C(=O)C[C@H](O)C2	–	–	–	–	–	–	–
–	Active	Active	Active	Active	CC(=O)CC1(O)CC(=O)c2c(C)cc(O)cc2O1 (configuration not stated)	Dose-dependent effect	Dose-dependent effect	Dose-dependent effect	Active	Dose-dependent effect	Dose-dependent effect	Non-Toxic
